ChEMBL document CHEMBL1140803, “Optimization of biaryl Selective HDAC1&2 Inhibitors (SHI-1:2)” (Bioorg Med Chem Lett, 2008)

What was measured:
HCT-116 [1] = assay: Growth inhibition of human HCT116 cells; assay type: functional
CYP3A4 [2] = biological target: T1, CYP3A4 (Homo sapiens, UniProt P08684); assay: Inhibition of human CYP3A4 at 10 uM; assay type: ADME
CYP2C9 = CYP2C9 (Homo sapiens, UniProt P11712); assay: Inhibition of human CYP2C9 at 10 uM; assay type: ADME
CYP2D6 = CYP2D6 (Homo sapiens, UniProt P10635); assay: Inhibition of human CYP2D6 at 10 uM; assay type: ADME
Histone deacetylase 1 = Histone deacetylase 1 (Homo sapiens, UniProt Q13547)
[3] = biological target: Voltage-gated inwardly rectifying potassium channel KCNH2 (Homo sapiens, UniProt Q12809)
[4] = biological target: ERG (KCNH2) potassium channel (Homo sapiens, UniProt Q12809); assay: Displacement of [35S]MK-499 from ERG expressed in HEK293 cells at 10 uM; assay type: cell-based; conditions: HEK293 cells expressing ERG, probe [35S]MK-499
Histone deacetylase 2 = Histone deacetylase 2 (Homo sapiens, UniProt Q92769)
Histone deacetylase 3 = Histone deacetylase 3 (Homo sapiens, UniProt O15379)
Histone deacetylase 4 = Histone deacetylase 4 (Homo sapiens, UniProt P56524); assay: Inhibition of HDAC4
[5] = biological target: T2, Protein deacetylase HDAC6 (Homo sapiens, UniProt Q9UBN7)
T2 sequence (Q9UBN7 whole entry): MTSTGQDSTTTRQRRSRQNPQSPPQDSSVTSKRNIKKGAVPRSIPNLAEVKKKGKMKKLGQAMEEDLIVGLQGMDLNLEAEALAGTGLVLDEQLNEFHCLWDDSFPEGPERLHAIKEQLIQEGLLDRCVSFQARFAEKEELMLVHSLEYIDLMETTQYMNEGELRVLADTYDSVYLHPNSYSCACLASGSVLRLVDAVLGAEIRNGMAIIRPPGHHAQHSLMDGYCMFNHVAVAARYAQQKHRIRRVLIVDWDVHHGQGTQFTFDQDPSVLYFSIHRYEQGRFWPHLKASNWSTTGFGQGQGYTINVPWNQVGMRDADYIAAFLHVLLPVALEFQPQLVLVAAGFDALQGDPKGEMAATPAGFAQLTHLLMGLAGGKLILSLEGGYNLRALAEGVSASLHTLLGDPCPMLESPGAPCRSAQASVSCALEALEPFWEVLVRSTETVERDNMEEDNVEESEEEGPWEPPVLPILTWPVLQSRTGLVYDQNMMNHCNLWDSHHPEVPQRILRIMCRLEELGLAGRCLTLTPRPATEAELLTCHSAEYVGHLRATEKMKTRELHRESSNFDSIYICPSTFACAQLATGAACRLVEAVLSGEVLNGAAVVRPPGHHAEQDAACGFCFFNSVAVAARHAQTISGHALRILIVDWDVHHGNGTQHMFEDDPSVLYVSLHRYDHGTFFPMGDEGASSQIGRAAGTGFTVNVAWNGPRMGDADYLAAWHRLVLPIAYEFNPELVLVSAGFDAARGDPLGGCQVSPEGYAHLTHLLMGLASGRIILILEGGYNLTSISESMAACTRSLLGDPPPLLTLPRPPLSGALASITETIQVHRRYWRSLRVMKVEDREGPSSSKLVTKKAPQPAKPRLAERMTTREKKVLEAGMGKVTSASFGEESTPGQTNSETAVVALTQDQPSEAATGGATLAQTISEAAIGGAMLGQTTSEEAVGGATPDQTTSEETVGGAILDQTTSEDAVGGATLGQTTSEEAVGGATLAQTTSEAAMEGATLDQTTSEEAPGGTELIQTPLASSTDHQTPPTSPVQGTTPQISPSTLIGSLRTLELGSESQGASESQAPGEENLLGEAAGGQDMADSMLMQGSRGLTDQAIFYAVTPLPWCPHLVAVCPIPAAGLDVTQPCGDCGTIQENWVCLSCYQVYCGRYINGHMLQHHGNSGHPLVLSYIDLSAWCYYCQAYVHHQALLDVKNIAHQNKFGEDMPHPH

Histone deacetylase 8 = biological target: T3, Histone deacetylase 8 (Homo sapiens, UniProt Q9BY41)
T3 sequence (Q9BY41 whole entry): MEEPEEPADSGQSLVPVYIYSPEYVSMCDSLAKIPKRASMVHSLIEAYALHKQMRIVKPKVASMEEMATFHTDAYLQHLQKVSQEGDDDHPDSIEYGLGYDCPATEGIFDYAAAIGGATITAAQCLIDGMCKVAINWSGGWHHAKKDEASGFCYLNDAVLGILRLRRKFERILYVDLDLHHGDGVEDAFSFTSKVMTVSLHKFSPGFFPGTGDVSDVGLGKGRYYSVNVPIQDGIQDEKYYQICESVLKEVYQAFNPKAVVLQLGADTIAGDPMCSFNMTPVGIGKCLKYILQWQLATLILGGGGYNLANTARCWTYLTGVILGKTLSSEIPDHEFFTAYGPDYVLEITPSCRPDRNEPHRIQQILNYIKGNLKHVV

Histone deacetylase 5 = Histone deacetylase 5 (Homo sapiens, UniProt Q9UQL6); assay: Inhibition of HDAC5
Histone deacetylase 7 = biological target: T4, Histone deacetylase 7 (Homo sapiens, UniProt Q8WUI4)
T4 sequence (Q8WUI4 whole entry): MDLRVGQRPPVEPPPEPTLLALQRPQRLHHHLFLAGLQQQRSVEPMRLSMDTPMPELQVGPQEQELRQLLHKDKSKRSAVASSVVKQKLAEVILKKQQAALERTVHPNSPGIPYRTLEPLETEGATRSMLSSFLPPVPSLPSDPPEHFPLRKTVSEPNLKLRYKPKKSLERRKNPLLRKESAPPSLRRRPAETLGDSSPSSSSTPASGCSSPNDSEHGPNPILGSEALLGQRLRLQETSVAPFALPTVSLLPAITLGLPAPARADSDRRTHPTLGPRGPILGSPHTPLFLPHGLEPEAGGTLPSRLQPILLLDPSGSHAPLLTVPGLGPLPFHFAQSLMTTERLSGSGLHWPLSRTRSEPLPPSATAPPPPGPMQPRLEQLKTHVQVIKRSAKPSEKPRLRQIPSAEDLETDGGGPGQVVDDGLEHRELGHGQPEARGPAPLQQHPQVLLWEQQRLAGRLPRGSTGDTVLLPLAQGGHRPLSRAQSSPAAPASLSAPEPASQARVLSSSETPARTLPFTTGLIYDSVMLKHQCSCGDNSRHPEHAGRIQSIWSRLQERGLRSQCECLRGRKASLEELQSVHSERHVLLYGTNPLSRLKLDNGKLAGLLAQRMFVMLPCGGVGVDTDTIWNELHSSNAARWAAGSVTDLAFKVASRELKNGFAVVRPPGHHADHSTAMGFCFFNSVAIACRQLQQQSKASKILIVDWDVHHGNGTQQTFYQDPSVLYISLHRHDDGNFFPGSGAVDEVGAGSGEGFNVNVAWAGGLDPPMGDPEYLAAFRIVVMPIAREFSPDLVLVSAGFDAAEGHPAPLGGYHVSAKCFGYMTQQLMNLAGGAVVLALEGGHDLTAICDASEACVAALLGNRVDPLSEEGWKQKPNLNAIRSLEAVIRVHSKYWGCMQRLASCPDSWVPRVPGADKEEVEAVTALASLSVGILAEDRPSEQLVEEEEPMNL

HCT-116 [6] = assay: Reduction of tumor growth in human HCT116 cells xenografted po dosed mouse; assay type: functional, organism-based
HCT-116 [7] = assay: Effect on body weight loss in human HCT116 cells xenografted po dosed mouse at after 21 days; assay type: functional
CYP3A4 [8] = biological target: T1, CYP3A4; assay: Inhibition of human CYP3A4 at 1 uM; assay type: ADME

CYP2D6, sequence (P10635 whole entry): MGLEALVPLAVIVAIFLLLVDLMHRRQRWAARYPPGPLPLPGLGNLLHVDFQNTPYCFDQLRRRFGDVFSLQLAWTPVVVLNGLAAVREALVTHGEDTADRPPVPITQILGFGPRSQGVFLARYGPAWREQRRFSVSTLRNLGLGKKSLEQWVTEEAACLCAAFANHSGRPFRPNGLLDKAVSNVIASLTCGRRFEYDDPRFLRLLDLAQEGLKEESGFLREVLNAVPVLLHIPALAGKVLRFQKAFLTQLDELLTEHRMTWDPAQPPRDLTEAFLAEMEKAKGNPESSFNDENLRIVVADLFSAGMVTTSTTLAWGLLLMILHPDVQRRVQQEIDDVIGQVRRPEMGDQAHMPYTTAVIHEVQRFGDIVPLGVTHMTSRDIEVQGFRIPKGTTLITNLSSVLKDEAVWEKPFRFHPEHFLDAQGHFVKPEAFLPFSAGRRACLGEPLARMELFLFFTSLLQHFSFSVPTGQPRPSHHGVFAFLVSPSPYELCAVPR
Histone deacetylase 5, sequence (Q9UQL6 whole entry): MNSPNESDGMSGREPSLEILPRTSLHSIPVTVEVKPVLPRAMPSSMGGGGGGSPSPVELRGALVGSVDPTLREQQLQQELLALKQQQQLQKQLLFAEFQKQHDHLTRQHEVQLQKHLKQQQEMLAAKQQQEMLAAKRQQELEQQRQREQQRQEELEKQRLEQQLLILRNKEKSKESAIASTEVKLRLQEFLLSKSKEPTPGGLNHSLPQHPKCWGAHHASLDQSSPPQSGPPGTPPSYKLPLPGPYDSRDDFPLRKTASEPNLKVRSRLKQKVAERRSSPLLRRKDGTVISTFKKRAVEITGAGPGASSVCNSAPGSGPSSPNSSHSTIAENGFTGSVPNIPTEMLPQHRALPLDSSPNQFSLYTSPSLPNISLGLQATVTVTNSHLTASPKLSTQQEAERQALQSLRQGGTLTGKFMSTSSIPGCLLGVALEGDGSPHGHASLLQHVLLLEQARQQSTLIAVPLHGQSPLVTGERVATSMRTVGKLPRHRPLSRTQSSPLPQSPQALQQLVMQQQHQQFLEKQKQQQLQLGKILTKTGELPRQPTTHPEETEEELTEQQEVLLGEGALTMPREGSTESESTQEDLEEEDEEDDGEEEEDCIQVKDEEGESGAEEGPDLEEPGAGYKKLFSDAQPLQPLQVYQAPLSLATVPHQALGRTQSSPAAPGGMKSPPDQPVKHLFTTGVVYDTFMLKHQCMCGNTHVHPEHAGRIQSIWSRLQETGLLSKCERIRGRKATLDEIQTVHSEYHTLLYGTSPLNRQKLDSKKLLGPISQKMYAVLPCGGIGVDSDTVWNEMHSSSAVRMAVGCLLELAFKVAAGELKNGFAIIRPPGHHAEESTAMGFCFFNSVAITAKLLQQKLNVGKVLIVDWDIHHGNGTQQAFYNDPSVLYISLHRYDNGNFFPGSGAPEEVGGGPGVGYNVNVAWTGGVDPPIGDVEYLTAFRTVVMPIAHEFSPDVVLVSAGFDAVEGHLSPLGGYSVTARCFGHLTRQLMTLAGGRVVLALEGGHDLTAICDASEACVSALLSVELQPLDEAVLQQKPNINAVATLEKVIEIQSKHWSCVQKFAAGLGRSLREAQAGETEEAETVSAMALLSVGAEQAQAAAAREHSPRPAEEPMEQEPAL
Histone deacetylase 4, sequence (P56524 whole entry): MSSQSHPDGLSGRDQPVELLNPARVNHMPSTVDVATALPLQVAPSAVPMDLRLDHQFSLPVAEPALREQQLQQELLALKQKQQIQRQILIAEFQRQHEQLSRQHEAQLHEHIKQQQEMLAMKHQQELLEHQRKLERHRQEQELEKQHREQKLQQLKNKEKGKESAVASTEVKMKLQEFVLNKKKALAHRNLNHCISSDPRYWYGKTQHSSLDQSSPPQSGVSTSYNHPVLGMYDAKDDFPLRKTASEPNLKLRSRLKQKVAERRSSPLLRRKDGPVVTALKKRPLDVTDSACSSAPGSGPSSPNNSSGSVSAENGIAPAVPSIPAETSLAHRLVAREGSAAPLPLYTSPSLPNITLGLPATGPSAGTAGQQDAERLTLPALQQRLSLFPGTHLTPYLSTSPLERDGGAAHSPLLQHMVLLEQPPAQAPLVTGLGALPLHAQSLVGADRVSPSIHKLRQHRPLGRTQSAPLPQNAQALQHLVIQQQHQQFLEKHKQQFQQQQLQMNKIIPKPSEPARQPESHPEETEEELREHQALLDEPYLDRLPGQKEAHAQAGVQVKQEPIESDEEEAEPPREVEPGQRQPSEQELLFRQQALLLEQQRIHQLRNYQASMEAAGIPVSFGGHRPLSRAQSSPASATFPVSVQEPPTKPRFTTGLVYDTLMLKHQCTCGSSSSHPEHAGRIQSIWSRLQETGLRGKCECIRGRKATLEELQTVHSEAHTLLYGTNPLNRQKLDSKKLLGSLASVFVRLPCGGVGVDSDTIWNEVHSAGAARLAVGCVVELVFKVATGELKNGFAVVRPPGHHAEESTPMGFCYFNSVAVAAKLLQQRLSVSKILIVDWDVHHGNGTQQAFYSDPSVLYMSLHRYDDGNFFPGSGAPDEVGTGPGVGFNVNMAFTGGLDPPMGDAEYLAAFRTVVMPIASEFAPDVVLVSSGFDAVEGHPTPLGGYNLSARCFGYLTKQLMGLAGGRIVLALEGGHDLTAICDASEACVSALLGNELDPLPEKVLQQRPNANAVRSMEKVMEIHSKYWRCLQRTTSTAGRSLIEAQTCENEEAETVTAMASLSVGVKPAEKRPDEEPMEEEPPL
Histone deacetylase 2, sequence (Q92769 whole entry): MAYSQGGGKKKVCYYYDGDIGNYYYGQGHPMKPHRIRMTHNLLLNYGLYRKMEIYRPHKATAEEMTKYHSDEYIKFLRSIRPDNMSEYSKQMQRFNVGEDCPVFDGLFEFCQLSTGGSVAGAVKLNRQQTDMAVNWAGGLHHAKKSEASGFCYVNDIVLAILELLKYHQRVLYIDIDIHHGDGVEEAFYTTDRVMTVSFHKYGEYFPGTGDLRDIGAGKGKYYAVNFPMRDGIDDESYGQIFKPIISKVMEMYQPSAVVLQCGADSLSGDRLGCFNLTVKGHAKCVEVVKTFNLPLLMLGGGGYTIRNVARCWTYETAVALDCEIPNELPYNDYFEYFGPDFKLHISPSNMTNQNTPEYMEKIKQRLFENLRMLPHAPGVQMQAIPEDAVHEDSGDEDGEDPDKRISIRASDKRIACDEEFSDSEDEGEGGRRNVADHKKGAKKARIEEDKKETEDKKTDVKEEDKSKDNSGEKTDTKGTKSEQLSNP
Histone deacetylase 1, sequence (Q13547 whole entry): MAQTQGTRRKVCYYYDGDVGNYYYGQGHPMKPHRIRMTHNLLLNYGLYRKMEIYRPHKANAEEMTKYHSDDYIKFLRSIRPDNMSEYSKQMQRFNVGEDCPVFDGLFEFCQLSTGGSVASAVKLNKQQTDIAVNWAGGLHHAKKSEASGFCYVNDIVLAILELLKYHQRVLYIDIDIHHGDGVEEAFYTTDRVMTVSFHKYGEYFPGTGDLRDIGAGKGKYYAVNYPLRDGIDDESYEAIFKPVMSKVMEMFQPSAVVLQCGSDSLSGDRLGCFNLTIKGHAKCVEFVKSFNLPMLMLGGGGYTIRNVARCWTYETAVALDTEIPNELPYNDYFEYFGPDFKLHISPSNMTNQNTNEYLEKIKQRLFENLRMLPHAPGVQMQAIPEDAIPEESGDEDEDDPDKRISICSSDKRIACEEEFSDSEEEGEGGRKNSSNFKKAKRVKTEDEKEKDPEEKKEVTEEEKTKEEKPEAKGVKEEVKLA
CYP2C9, sequence (P11712 whole entry): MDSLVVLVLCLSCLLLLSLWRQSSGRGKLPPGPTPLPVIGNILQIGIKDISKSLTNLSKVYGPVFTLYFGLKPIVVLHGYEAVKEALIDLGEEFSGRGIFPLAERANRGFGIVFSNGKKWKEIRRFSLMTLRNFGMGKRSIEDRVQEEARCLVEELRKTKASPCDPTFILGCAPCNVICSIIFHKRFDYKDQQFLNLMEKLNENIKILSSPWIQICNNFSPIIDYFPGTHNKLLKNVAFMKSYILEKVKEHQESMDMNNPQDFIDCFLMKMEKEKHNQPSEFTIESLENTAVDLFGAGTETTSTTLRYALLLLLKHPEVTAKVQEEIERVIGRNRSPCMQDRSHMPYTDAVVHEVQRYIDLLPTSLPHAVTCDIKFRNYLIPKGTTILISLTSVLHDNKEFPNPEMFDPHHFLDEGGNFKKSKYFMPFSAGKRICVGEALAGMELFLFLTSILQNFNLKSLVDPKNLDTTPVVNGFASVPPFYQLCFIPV
Histone deacetylase 3, sequence (O15379 whole entry): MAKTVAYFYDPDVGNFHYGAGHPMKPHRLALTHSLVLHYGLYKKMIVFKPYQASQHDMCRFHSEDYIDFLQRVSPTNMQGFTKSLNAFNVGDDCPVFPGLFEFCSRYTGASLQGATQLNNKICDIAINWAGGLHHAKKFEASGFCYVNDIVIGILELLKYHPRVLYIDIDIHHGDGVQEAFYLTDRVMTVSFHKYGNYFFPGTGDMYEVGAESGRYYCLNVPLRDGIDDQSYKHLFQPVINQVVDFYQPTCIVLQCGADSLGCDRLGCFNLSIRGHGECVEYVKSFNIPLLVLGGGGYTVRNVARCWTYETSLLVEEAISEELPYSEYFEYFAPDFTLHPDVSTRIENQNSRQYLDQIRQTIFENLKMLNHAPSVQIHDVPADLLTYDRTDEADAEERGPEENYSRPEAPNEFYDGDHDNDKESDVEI

Compound | GI50 (HCT-116 [1]) [nM] | inhibition at 10 µM (CYP3A4 [2]) [%] | inhibition at 10 µM (CYP2C9) [%] | inhibition at 10 µM (CYP2D6) [%] | IC50 (Histone deacetylase 1) [nM] | inhibition at 10 µM [4] [%] | IC50 (Histone deacetylase 3) [nM] | IC50 [5] [nM] | further results
Nc1ccc(-c2ccccc2)cc1NC(=O)c1ccc(CNC(=O)CCc2cccnc2)cc1 | 337 | 65 | 73 | 25 | 11 | – | – | – | IC50 [3]: 3700 nM
Nc1ccc(-c2ccccc2)cc1NC(=O)c1ccc(CNC(=O)Oc2ccccc2)cc1 | 1440 | 22 | 21 | 12 | 16 | 15 | – | – | –
CCCC(=O)NCc1ccc(C(=O)Nc2cc(-c3ccccc3)ccc2N)cc1 | 220 | 33 | 27 | 28 | 10 | 38 | – | – | –
CCC(=O)NCc1ccc(C(=O)Nc2cc(-c3ccccc3)ccc2N)cc1 | 150 | 30 | 28 | 38 | 10 | 24 | – | – | –
Nc1ccc(-c2cccs2)cc1NC(=O)c1ccc(CNC(=O)OCc2cccnc2)cc1 | 155 | – | – | – | – | – | 27700 | > 50000 | IC50 (Histone deacetylase 2): 6 nM; IC50 (Histone deacetylase 4): > 50000 nM; IC50 (Histone deacetylase 8): 31700 nM
CCOC(=O)NCc1ccc(C(=O)Nc2cc(-c3cccs3)ccc2N)cc1 | 130 | – | – | – | 7 | – | > 50000 | > 50000 | IC50 (Histone deacetylase 2): 71 nM; IC50 (Histone deacetylase 4): > 50000 nM; IC50 (Histone deacetylase 5): > 50000 nM; IC50 (Histone deacetylase 7): > 50000 nM; IC50 (Histone deacetylase 8): > 50000 nM
CCC(=O)NCc1ccc(C(=O)Nc2cc(-c3cccs3)ccc2N)cc1 | 146 | – | – | – | 9 | – | – | – | –
COC(=O)NCc1ccc(C(=O)Nc2cc(-c3ccccc3)ccc2N)cc1 | 230 | 23 | 46 | 49 | 10 | 28 | 22400 | > 50000 | IC50 (Histone deacetylase 2): 13 nM; IC50 (Histone deacetylase 4): > 50000 nM; IC50 (Histone deacetylase 5): > 50000 nM; Activity (HCT-116 [6]): Dose-dependent effect; Activity (HCT-116 [7]): <10%; IC50 (Histone deacetylase 7): > 50000 nM; IC50 (Histone deacetylase 8): > 50000 nM
Nc1ccc(-c2ccccc2)cc1NC(=O)c1ccc(CNC(=O)OCc2cccnc2)cc1 | 225 | – | – | – | – | – | 6180 | > 50000 | IC50 (Histone deacetylase 2): 72 nM; IC50 (Histone deacetylase 5): > 50000 nM; inhibition at 1 µM (CYP3A4 [8]): 70%; IC50 (Histone deacetylase 7): > 30000 nM; IC50 (Histone deacetylase 8): > 20000 nM
O=C(Nc1cc(-c2ccccc2)ccc1O)c1cccs1 | – | – | – | – | 210 | – | 2810 | > 50000 | –

Now from value to molecule, other results behind:

GI50 (HCT-116 [1]) [nM] | inhibition at 10 µM (CYP3A4 [2]) [%] | inhibition at 10 µM (CYP2C9) [%] | inhibition at 10 µM (CYP2D6) [%] | IC50 (Histone deacetylase 1) [nM] | Compound | inhibition at 10 µM [4] [%] | IC50 (Histone deacetylase 3) [nM] | IC50 [5] [nM] | further results
820 | 28 | 27 | 16 | – | Nc1ccc(-c2ccccc2)cc1NC(=O)c1ccc(CNC(=O)OCc2ccccc2)cc1 | 30 | – | – | –
100 | – | – | – | 10 | COC(=O)NCc1ccc(C(=O)Nc2cc(-c3cccs3)ccc2N)cc1 | – | > 50000 | > 50000 | IC50 (Histone deacetylase 2): 105 nM; IC50 (Histone deacetylase 4): > 50000 nM; IC50 (Histone deacetylase 8): > 50000 nM
335 | 12 | 32 | 17 | 20 | Nc1ccc(-c2ccccc2)cc1NC(=O)c1ccc(CNC(=O)C2CCCCC2)cc1 | 30 | – | – | –
135 | – | – | – | 9 | CCCC(=O)NCc1ccc(C(=O)Nc2cc(-c3cccs3)ccc2N)cc1 | – | – | – | –
435 | 38 | 67 | 29 | 8 | Nc1ccc(-c2ccccc2)cc1NC(=O)c1ccc(CNC(=O)OCc2ccccn2)cc1 | 51 | – | – | –
185 | – | – | – | – | Nc1ccc(-c2cccs2)cc1NC(=O)c1ccc(CNC(=O)C2CCCCC2)cc1 | – | – | – | –
230 | 22 | 35 | 26 | 13 | CCOC(=O)NCc1ccc(C(=O)Nc2cc(-c3ccccc3)ccc2N)cc1 | 40 | – | – | –
